For assay [1], the system named is P. falciparum stage IV/V gametocytes. The assay is described as follows: LDH-based gametocyte viability assay. The assay is classed as cell-based, Plasmodium falciparum. As to conditions: stage IV to V gametocytes. Here is the method:
The pLDH assay was performed on late (>95% stage IV/V) gametocytes. Compound dilutions were placed in triplicate in 96-well plates in a final volume of 100 μl per well. DHA and MMV048 were used as positive drug controls. The gametocyte cultures (100 μl per well) were added to the 96-well plates to achieve a final gametocytemia and hematocrit of 2 and 1%, respectively, in a total incubation volume of 200 μl. Plates were incubated at 37°C for 72 hours, followed by the replacement of spent medium with drug-free culture medium (75% medium change) ([54], [55]). Plates were then incubated for a further 72 hours before assessing viability by measuring pLDH activity. Gametocyte viability was determined spectrophotometrically by measuring the activity of pLDH, according to a modified version of a published protocol ([56]). Briefly, 100 μl of Malstat reagent [0.21% (v/v) Triton X-100, 222 mM L-(+)-lactic acid, 54.5 mM tris, 0.166 mM APAD (Sigma-Aldrich, A5251), adjusted to pH 9 with 1 M NaOH] was transferred into a clean 96-well plate. A fixed volume of 20 μl of parasite suspension per well was added to the Malstat plate, followed by the addition of 25 μl of PES/NBT (0.239 mM phenazine ethosulfate and 1.96 mM nitro blue tetrazolium chloride). Absorbance was measured with a Multiskan Ascent 354 multiplate scanner (Thermo LabSystems, Finland) at 620 nm.

Assay [2] has as its target T1, human PDE5A1 (Homo sapiens, UniProt O76074).
T1 construct: GST (glutathione S-transferase); purchased BPS Bioscience BPS-60050
The assay is described as follows: Human PDE5 selectivity SPA. The assay is classed as biochemical. As to conditions: IC50 PDE5A1 / IC50 PDEβ schizont lysates. The procedure:
(§1) The selectivity of the compounds on the parasite PDEs over the two human isoforms PDE5A1 and PDE6C was measured through a dose-response assay of their hydrolytic activity in presence of the compounds. Similarly to the parasite lysates, an SPA was carried out with the recombinant purified human glutathione S-transferase–tagged PDE5A1 or PDE6C (BPS Bioscience, BPS-60050 and BPS-60062) prepared in PDE assay buffer [10 mM tris-HCl (pH 7.4), 10 mM MgCl2, bovine serum albumin (0.1 mg/ml), and 0.05% Tween 20] at a concentration of 648 pg of enzyme per 50 μl of total volume per well. To determine the IC50 of the compounds, threefold serial dilutions in duplicate were performed. Briefly, the assays were carried out in flexible 96-well plates (PerkinElmer, 1450-401) by incubating the enzyme with the compounds and 5 μl of 200 nM cGMP dilution [[^3H]-cNMP tracer (PerkinElmer, cGMP-NET337250UC) in PDE assay buffer] to a total volume of 50 μl for 45 min at 37°C. The reactions were terminated by addition of 25 μl of PDE SPA beads (PerkinElmer, RPNQ0150), and after 20 min of incubation at room temperature, scintillation was measured using a Wallac 1450 Microbeta Counter (PerkinElmer) for 30 s. […] The selectivity of the compounds was expressed as the fold change in the IC50 obtained for PDE5A1 or PDE6C and the IC50 for the P. falciparum PDEβ schizont lysates.

The test system of assay [3] is P. falciparum stage V gametocytes (male gamete formation). The assay is described as follows: Exflagellation (male gamete formation) inhibition assay. As to conditions: 2 μM, 48 hours. The assay is classed as cell-based, Plasmodium falciparum. Here is the method: The exflagellation inhibition assay was performed by capturing movement of exflagellation centers over time by video microscopy [adapted from a reported protocol ([52])]. For this carry-over format, mature stage V gametocytes were treated with 2 μM of each compound for 48 hours before induction of exflagellation in the presence of compound. To evaluate compound dose response, gametocytes were treated similarly at a set of concentrations representing a fourfold serial dilution. Mature gametocyte cultures (>95% stage V; 500 μl) were centrifuged at 3500 rpm for 30 s, and the pellet was resuspended in 30 μl of ookinete medium [RPMI 1640 medium containing L-glutamine (Sigma-Aldrich, R6504), gentamycin (0.024 mg/ml; HyClone, SV30080.01), 202 μM hypoxanthine (Sigma-Aldrich, H9636), 25 mM Hepes (Sigma-Aldrich, H4034), 0.2% glucose (Sigma-Aldrich, G6152), and 0.5% (w/v) AlbuMAX II (Invitrogen, Paisley, UK), supplemented with 100 μM XA and 20% human serum]. The activated culture (10 μl) was introduced into a Neubauer chamber and placed on the microscope platform to settle homogenously. Time was noted as time zero (T0), and the chamber was incubated at room temperature. Movement was recorded by video microscopy using a Carl Zeiss NT 6V/10W Stab microscope, fitted with a MicroCapture camera at 10× magnification, and then quantified by a semiautomated method, a modification of the method described previously ([53]). A series of 15 videos of 8 to 10 s each were captured at random locations between 15 and 22.5 min after incubation. Each video was analyzed using Icy bioimage analysis software to quantify the number of exflagellating centers. Compound IC50 values were determined with nonlinear curve fitting (GraphPad Prism 6), normalized to maximum and minimum inhibition.

The subject of assay [4] is P. falciparum stage V gametocytes (female gamete formation). The assay is described as follows: Female gamete formation inhibition assay. The assay is classed as cell-based, Plasmodium falciparum. As to conditions: 2 μM, 48 hours. The procedure: Mature gametocytes (>95% stage V) were treated with compounds (2 μM) for 48 hours before stimulating female gamete formation. To evaluate compound dose response, gametocytes were treated similarly at set concentrations representing a fourfold serial dilution. Female gamete activation was induced by both a temperature drop and the addition of 100 μM XA. Monoclonal anti-Pfs25 antibody (BEI Resources, catalog number MRA-28; 1:1000 dilution) conjugated to fluorescein isothiocyanate was used to detect female gametes. Image acquisition was performed using a Zeiss Axio Lab.A1 epifluorescence microscope with a 100/1.4 numerical aperture oil immersion objective and a Zeiss Axiocam 202 mono digital camera. Using a 100× objective, 30 images were taken per sample and analyzed manually. The number, size, roundness, and intensity of fluorescence of activated female gametocytes were evaluated. Compound IC50 values were determined with nonlinear curve fitting (GraphPad Prism 6), normalized to maximum and minimum inhibition.

The target in assay [5] is T2, human PDE6C (Homo sapiens, UniProt P51160).
T2 construct: GST (glutathione S-transferase); purchased BPS Bioscience BPS-60062
T2 sequence (P51160 whole entry): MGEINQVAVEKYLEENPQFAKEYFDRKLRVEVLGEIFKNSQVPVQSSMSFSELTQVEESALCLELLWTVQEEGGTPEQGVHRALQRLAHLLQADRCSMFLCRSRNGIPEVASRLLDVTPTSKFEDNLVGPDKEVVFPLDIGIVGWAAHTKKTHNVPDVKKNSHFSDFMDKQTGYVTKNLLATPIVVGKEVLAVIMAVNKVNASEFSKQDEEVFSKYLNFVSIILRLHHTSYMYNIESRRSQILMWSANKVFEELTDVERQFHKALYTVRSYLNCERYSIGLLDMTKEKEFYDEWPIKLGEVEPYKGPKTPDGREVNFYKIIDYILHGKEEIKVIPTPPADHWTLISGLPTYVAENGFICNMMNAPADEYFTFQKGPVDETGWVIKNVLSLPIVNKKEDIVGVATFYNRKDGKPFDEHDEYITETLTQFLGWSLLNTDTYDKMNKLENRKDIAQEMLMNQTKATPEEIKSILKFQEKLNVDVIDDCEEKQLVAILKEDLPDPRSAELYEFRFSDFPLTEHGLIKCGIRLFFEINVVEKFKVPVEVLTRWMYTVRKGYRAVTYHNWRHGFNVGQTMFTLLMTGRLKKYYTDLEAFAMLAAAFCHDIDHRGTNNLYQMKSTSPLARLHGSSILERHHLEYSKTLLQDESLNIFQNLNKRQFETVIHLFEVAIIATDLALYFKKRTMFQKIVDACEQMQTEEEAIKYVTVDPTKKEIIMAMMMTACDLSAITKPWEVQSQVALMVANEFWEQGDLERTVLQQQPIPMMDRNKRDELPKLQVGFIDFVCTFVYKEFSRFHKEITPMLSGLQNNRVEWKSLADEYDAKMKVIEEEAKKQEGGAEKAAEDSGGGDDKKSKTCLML
The assay is described as follows: Human PDE6 selectivity SPA. The assay is classed as biochemical. As to conditions: IC50 PDE6C / IC50 PDEβ schizont lysates. Here is the method:
as §1

For assay [6], the system named is cGMP-PDE activity in gametocyte lysates (PDEα, PDEδ). The assay is described as follows: cGMP hydrolysis SPA in stage IV/V gametocyte membrane lysates. The note with it: gametocyte lysate; geometric mean ×/÷ geometric SD. The format is biochemical, Plasmodium falciparum. The procedure:
cGMP signaling is known to play an essential role in gametogenesis in Plasmodium ([19], [20], [28]). We therefore tested the effects of all newly synthesized analogs for their ability to inhibit cGMP hydrolysis in crude gametocyte membrane preparations. […] S5A. These findings were also consistent with our enzyme-linked immunosorbent assay (ELISA)–based measurement of elevated cGMP levels in gametocytes following incubation with an example of each subseries (Fig. 2A). […] The levels of cAMP detected in gametocytes were similar in dimethyl sulfoxide (DMSO)–, XA-, and inhibitor-treated samples, and we could detect little or no cAMP hydrolysis in mature gametocytes (fig. S5B). […]
The cyclic nucleotide hydrolytic activity of membrane-associated parasite PDE enzymes was measured by a scintillation proximity assay (SPA) ([18]) using lysates of mature P. falciparum schizonts or stage IV/V gametocytes. […] The IC50 values for the compounds were determined using threefold serial dilutions in duplicate. […] The reactions were terminated by addition of 25 μl of PDE SPA beads (PerkinElmer, RPNQ0150), and after 20 min of incubation at room temperature, scintillation was measured using a Wallac 1450 Microbeta Counter (PerkinElmer) for 30 s. […]

In assay [7] the test system is HepG2 cells. The assay is described as follows: HepG2 cytotoxicity. The format is cell-based. The source says: Table 1. Key activity data for the three main chemical subseries against ABS parasites, parasite fractions, and HepG2 cells. ND, not determined; ×/÷ is the geometric mean with geometric SD. | column: HepG2 EC50 (nM) (selectivity index)
Assay [8] has as its system P. falciparum Dd2. The assay is described as follows: Ex vivo 72-hour SYBR Green assay, Dd2 control (Uganda). The assay is classed as cell-based, Plasmodium falciparum. As to conditions: Ugandan ex vivo assay control; read-out: EC50 lab strain Dd2. The procedure: (§2) Samples were delivered to the adjacent IDRC laboratory at Tororo District Hospital or transported by car from Masafu Hospital on the day of collection for storage of blood spots on filter paper (for isolation of nucleic acids) and initiation of ex vivo culture of malaria parasites. […] Before assay, 10 mM antimalarial stock compounds were diluted as necessary in DMSO and stored at −20°C. […] Compounds were serially diluted threefold in a 96-well assay plate in complete medium to a final volume of 50 μl, in columns 1 to 10, with concentrations optimized to capture full dose-response curves. Column 11 contained compound-free controls, while column 12 contained uninfected human RBC controls. Parasite culture (150 μl) was added to columns 1 to 11 of the assay plate with a final volume of 200 μl per well, 0.2% parasitemia, and 2% hematocrit. […] Thawed plates were incubated with SYBR Green lysis buffer for 1 hour in the dark as previously reported ([62]). Fluorescence was quantified using a BMG Fluostar Optima plate reader at an excitation of 485 nm and an emission of 530 nm, and data were plotted using GraphPad Prism 7. The data were curve fit with a variable slope function to estimate IC50 values. For each isolate, a Z′ factor to assess assay quality was calculated from positive controls (eight drug-free wells) and negative controls (eight parasite-free, red cell control wells). Z′ values over 0.5 were considered good assays, but each curve was also examined by eye for suitability. Some assays with Z′ below 0.5 may be considered valid depending on factors such as the SE of the curve-fit IC50.

The subject of assay [9] is P. falciparum clinical isolates from Tororo and Busia Districts of Uganda. The assay is described as follows: Ex vivo 72-hour SYBR Green assay, Ugandan clinical isolates. As to conditions: 47 Ugandan isolates. The format is cell-based, Plasmodium falciparum.
Text: Clinical isolates were from the Tororo District of Uganda, located in the central-eastern part of the county near the Kenya border. Tororo and surrounding areas have high-intensity, year-round malaria transmission. […] Patients reporting use of antimalarial treatment within the previous 30 days or with evidence of an infection with other Plasmodium species were excluded. Informed consent was obtained from patients and/or primary care givers (depending on age); children aged 8 to 17 years provided assent. Two to 5 ml of blood was collected by venipuncture in a heparin tube. Samples were delivered to the adjacent IDRC laboratory at Tororo District Hospital or transported by car from Masafu Hospital on the day of collections for storage of blood spots on filter paper (for isolation of nucleic acids) and initiation of ex vivo culture of malaria parasites. Treatment involved a standard therapeutic regimen for uncomplicated falciparum malaria, which was a 3-day course of the artemisinin-based combination therapy (ACT), artemether-lumefantrine. In Uganda, at the time of sampling, there was widespread resistance to the antifolate drugs due to mutant pfdhfr/pfdhps alleles. […] Chloroquine was prepared at 10 mM in water. Stock solutions were stored at −20°C. Working solutions were freshly prepared from a single aliquot within 4 hours of the susceptibility test and stored at 4°C.
as §2

The subject of assay [10] is P. falciparum 3D7. The assay is described as follows: Ex vivo 72-hour SYBR Green assay, 3D7 control (Uganda). The note with it: Ugandan ex vivo assay control; read-out: EC50 lab strain 3D7. The assay is classed as cell-based, Plasmodium falciparum. The procedure: as §2

Where two headings read alike, the source gives them in different places. Bounds are passed on as bounds.

By IC50 is commonly meant the point on the concentration scale where inhibition reaches its midpoint. A high value points to a need for much substance. A word on the EC50: it is the midpoint of the concentration-response curve.

Consider `CCc1c2nc(-c3cc(-c4ccccc4)cnc3OCC(C)C)[nH]c(=O)c2nn1CCOC` [SAL-0010028], for which the “% inhibition gametocyte viability at 15 μM” value in [1] is on record as 57.1 ± 27.0%. Moreover, in [2], the “Selectivity against human PDE5” value amounted to 773 fold. In addition, the “% inhibition of exflagellation at 2 μM” value in assay [3] is given as 18.6 ± 15.8%. Besides, the “% inhibition of female gamete formation at 2 μM” value in [4] stood at 6.9 ± 2.6%.
In the case of `CCCCOc1ncc(Br)cc1-c1nc2c(CC)n(CCOC)nc2c(=O)[nH]1` [SAL-0010039], the “% inhibition gametocyte viability at 15 μM” value in assay [1] is recorded as 0%. Further, the “% inhibition of exflagellation at 2 μM” value in assay [3] amounted to 0%. In addition, the “Selectivity against human PDE6” value in assay [5] came out at 338 fold. In assay [4], the “% inhibition of female gamete formation at 2 μM” value is reported as 20.7 ± 2.3%.
Turning to `CCNC(=O)c1cnc(OCC(C)C)c(-c2nc3c(C(C)C)n[nH]c3c(=O)[nH]2)c1` [SAL-0010333], the IC50 in [6] worked out at 77.2 ± 1.8 nM. Moreover, the EC50 was more than 25000 nM in assay [7]; 181 nM in assay [8]; 167 nM in assay [9] (read-out: EC50 clinical isolates, Gmean (geometric mean)); 160 nM in [9] (read-out: EC50 clinical isolates, Median); 223 nM in assay [10].
